# In PubChem BioAssay (NCI):
#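 96-well plates; 48 h exposure; 5 concentrations. Endpoints by linear interpolation between flanking doses. Not reached: highest tested concentration assigned. The concentration for 50% growth inhibition is given as GI50. TGI is the concentration that stops growth completely.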
# Experiments:
# Assay in all cases: growth of human tumour cells (NCI), 48 h
# [1] = test system: NCI/ADR-RES ovarian
# [2] = test system: BT-549 breast
# [3] = test system: SR leukemia
# [4] = test system: MDA-MB-435
# [5] = test system: MDA-N
# [6] = test system: EKVX NSCLC
# [7] = test system: HCC-2998 colon
# [8] = test system: HOP-18 NSCLC
# [9] = test system: DMS 273 small cell lung
# [10] = test system: RXF-631 renal
# [11] = test system: KM20L2 colon
# [12] = test system: XF 498 CNS
# [13] = test system: SNB-78 CNS
# [14] = test system: M19-MEL melanoma
# [15] = test system: DMS 114 small cell lung
Structure (SMILES),TGI [1],TGI [2],TGI [3],TGI [4],TGI [5],TGI [6],TGI [7],GI50 [1],GI50 [2],GI50 [4],TGI [8],TGI [9],TGI [10],TGI [11],TGI [12],TGI [13],TGI [14],TGI [15]
CCOC(=O)C(O)(NC(=O)c1ccccc1F)C(F)(F)F (configuration not stated),> 100 µM,> 100 µM,> 100 µM,> 100 µM,> 100 µM,> 100 µM,> 100 µM,,,,,,,,,,,
CO/N=C(\C)COc1ccc2c(=O)c(-c3ccccc3)coc2c1,50 µM,38.8 µM,,> 100 µM,,,,14.5 µM,18 µM,> 100 µM,,,,,,,,
COc1cc(C2C(C(=O)O)=C(COC(C)=O)Oc3cc4c(cc32)OCO4)cc(OC)c1OC (configuration not stated),,,,,,> 100 µM,,,,,> 100 µM,> 100 µM,> 100 µM,> 100 µM,> 100 µM,> 100 µM,> 100 µM,> 100 µM
